Patent US5405849A, “Angiotensin II receptor blocking 2,3,6 substituted quinazolinones” (American Cyanamid Company, priority 1993, dated 1995)

System: angiotensin II (AII) vasopressor response
Experiment: AII challenge: antagonism of the vasopressor response of angiotensin II in conscious Okamoto-Aoki SHR
Assay type: in vivo, rat (Okamoto-Aoki SHR)
Conditions: for inhibition in vivo at 1 mg/kg / inhibition in vivo at 2 mg/kg / inhibition in vivo at 5 mg/kg / inhibition in vivo at 3 mg/kg / inhibition in vivo at 30 mg/kg: Rattus norvegicus; for inhibition in vivo at 1 mg/kg / inhibition in vivo at 2 mg/kg / inhibition in vivo at 3 mg/kg / inhibition in vivo at 30 mg/kg: iv; for inhibition in vivo at 5 mg/kg: po; for inhibition in vivo at 30 mg/kg: 30 mg/kg iv
From the text: Conscious Male Okamoto-Aoki SHR, 16-20 weeks old, weighing approximately 330 g are purchased from Charles River Labs (Wilmington, Mass.). Conscious rats are restrained in a supine position with elastic tape. The area at the base of the tail is locally anesthetized by subcutaneous infiltration with 2% procaine. The ventral caudal artery and vein are isolated, and a cannula made of polyethylene (PE) 10-20 tubing (fused together by heat) is passed into the lower abdominal aorta and vena cava, respectively. The cannula is secured, heparinized (1,000 I.U./ml), sealed and the wound is closed. The animals are placed in plastic restraining cages in an upright position. The cannula is attached to a Statham P23Db pressure transducer, and pulsatile blood pressure is recorded to 10-15 minutes with a Gould Brush recorder.
Angiotensin II (human sequence, Sigma Chem. Co., St. Louis, Mo.) of 0.05 and 0.1 ug/kg i.v. is injected into all rats (predosing response). Then a test compound, vehicle or a known angiotensin II antagonist is administered i.v., i.p. or orally to each set of rats. […] The vasopressor response of angiotensin II is measured for the increase in systolic blood pressure in mmHg. The percentage of antagonism or blockade of the vasopressor response of angiotensin II by a compound is calculated using the vasopressor response (increase in systolic blood pressure) of angiotensin II of each rat predosing the compound as 100%.

[1] = 1 mg/kg iv, AII .1 ug/kg, 30 min
[2] = 0.5 h, 1 mg/kg iv, AII .05 ug/kg, 30 min
[3] = 0.5 h, 1 mg/kg iv, AII .1 ug/kg, 30 min
[4] = 2 h, 2 mg/kg iv, AII .05 ug/kg, 120 min
[5] = 2 h, 2 mg/kg iv, AII .1 ug/kg, 120 min
[6] = 2.5 h, 2 mg/kg iv, AII .05 ug/kg, 150 min
[7] = 2.5 h, 2 mg/kg iv, AII .1 ug/kg, 150 min
[8] = 3 h, 5 mg/kg oral, AII .05 ug/kg, 180 min
[9] = 3 h, 5 mg/kg oral, AII .1 ug/kg, 180 min

## CCCCc1nc2ccc(C(O)c3ccccc3)cc2c(=O)n1Cc1ccc(-c2ccccc2-c2nnn[nH]2)cc1 (stereo not drawn) [Example 54]
[1]
  Response change (systolic BP increase to AII): 35 mmHg
2 mg/kg iv, AII .05 ug/kg, 180 min
  Response change (systolic BP increase to AII): 17 mmHg
5 mg/kg oral, AII .05 ug/kg, 180 min
  Response change (systolic BP increase to AII): 25 mmHg
5 mg/kg oral, AII .1 ug/kg, 180 min
  Response change (systolic BP increase to AII): 48 mmHg
[2]
  inhibition in vivo at 1 mg/kg: 47%
[3]
  inhibition in vivo at 1 mg/kg: 30%
0.75 h, 1 mg/kg iv, AII .05 ug/kg, 45 min
  inhibition in vivo at 1 mg/kg: 75%
0.75 h, 1 mg/kg iv, AII .1 ug/kg, 45 min
  inhibition in vivo at 1 mg/kg: 28%
1.5 h, 1 mg/kg iv, AII .05 ug/kg, 90 min
  inhibition in vivo at 1 mg/kg: 49%
1.5 h, 1 mg/kg iv, AII .1 ug/kg, 90 min
  inhibition in vivo at 1 mg/kg: 34%
[4]
  inhibition in vivo at 2 mg/kg: 85%
[5]
  inhibition in vivo at 2 mg/kg: 64%
[6]
  inhibition in vivo at 2 mg/kg: 67%
[7]
  inhibition in vivo at 2 mg/kg: 54%
3 h, 2 mg/kg iv, AII .05 ug/kg, 180 min
  inhibition in vivo at 2 mg/kg: 69%
3 h, 2 mg/kg iv, AII .1 ug/kg, 180 min
  inhibition in vivo at 2 mg/kg: 50%
[8]
  inhibition in vivo at 5 mg/kg: 55%
[9]
  inhibition in vivo at 5 mg/kg: 26%

## CCCCc1nc2ccc(C(C)(C)OC)cc2c(=O)n1Cc1ccc(-c2ccccc2-c2nnn[nH]2)cc1 [Example 57, 2-Butyl-6-(1-methoxy-1-methylethyl)-3-[[2'-(1H-tetrazol-5-yl)[1,1'-biphenyl]-4-yl]methyl]-4(3H)-quinazolinone]
1 mg/kg iv, AII .025 ug/kg, 15 min
  Response change (systolic BP increase to AII): 15 mmHg
1 mg/kg iv, AII .025 ug/kg, 30 min
  Response change (systolic BP increase to AII): 15 mmHg
1 mg/kg iv, AII .025 ug/kg, 60 min
  Response change (systolic BP increase to AII): 5 mmHg
1 mg/kg iv, AII .05 ug/kg, 15 min
  Response change (systolic BP increase to AII): 5 mmHg
1 mg/kg iv, AII .05 ug/kg, 30 min
  Response change (systolic BP increase to AII): 10 mmHg
1 mg/kg iv, AII .05 ug/kg, 60 min
  Response change (systolic BP increase to AII): 15 mmHg
1 mg/kg iv, AII .1 ug/kg, 15 min
  Response change (systolic BP increase to AII): 25 mmHg
[1]
  Response change (systolic BP increase to AII): 35 mmHg
1 mg/kg iv, AII .1 ug/kg, 60 min
  Response change (systolic BP increase to AII): 35 mmHg
2 mg/kg iv, AII .025 ug/kg, 30 min
  Response change (systolic BP increase to AII): 0 mmHg
2 mg/kg iv, AII .025 ug/kg, 120 min
  Response change (systolic BP increase to AII): 60 mmHg
2 mg/kg iv, AII .025 ug/kg, 150 min
  Response change (systolic BP increase to AII): 0 mmHg
2 mg/kg iv, AII .05 ug/kg, 30 min
  Response change (systolic BP increase to AII): 0 mmHg
2 mg/kg iv, AII .05 ug/kg, 120 min
  Response change (systolic BP increase to AII): 30 mmHg
2 mg/kg iv, AII .05 ug/kg, 150 min
  Response change (systolic BP increase to AII): 0 mmHg
2 mg/kg iv, AII .1 ug/kg, 30 min
  Response change (systolic BP increase to AII): 0 mmHg
2 mg/kg iv, AII .1 ug/kg, 120 min
  Response change (systolic BP increase to AII): 20 mmHg
3 mg/kg iv, AII .025 ug/kg, 150 min
  Response change (systolic BP increase to AII): 15 mmHg
3 mg/kg iv, AII .05 ug/kg, 150 min
  Response change (systolic BP increase to AII): 15 mmHg
3 mg/kg iv, AII .1 ug/kg, 150 min
  Response change (systolic BP increase to AII): 25 mmHg
5 mg/kg oral, AII .025 ug/kg, 240 min
  Response change (systolic BP increase to AII): 0 mmHg
0.25 h, 1 mg/kg iv, AII .025 ug/kg, 15 min
  inhibition in vivo at 1 mg/kg: 50%
0.25 h, 1 mg/kg iv, AII .05 ug/kg, 15 min
  inhibition in vivo at 1 mg/kg: 89%
0.25 h, 1 mg/kg iv, AII .1 ug/kg, 15 min
  inhibition in vivo at 1 mg/kg: 48%
0.5 h, 1 mg/kg iv, AII .025 ug/kg, 30 min
  inhibition in vivo at 1 mg/kg: 50%
[2]
  inhibition in vivo at 1 mg/kg: 78%
[3]
  inhibition in vivo at 1 mg/kg: 27%
0.5 h, 2 mg/kg iv, AII .025 ug/kg, 30 min
  inhibition in vivo at 2 mg/kg: 100%
0.5 h, 2 mg/kg iv, AII .05 ug/kg, 30 min
  inhibition in vivo at 2 mg/kg: 100%
0.5 h, 2 mg/kg iv, AII .1 ug/kg, 30 min
  inhibition in vivo at 2 mg/kg: 100%
1 h, 1 mg/kg iv, AII .025 ug/kg, 60 min
  inhibition in vivo at 1 mg/kg: 83%
1 h, 1 mg/kg iv, AII .05 ug/kg, 60 min
  inhibition in vivo at 1 mg/kg: 67%
1 h, 1 mg/kg iv, AII .1 ug/kg, 60 min
  inhibition in vivo at 1 mg/kg: 27%
2 h, 2 mg/kg iv, AII .025 ug/kg, 120 min
  inhibition in vivo at 2 mg/kg: 100%
[4]
  inhibition in vivo at 2 mg/kg: 33%
[5]
  inhibition in vivo at 2 mg/kg: 58%
2.5 h, 2 mg/kg iv, AII .025 ug/kg, 150 min
  inhibition in vivo at 2 mg/kg: 100%
[6]
  inhibition in vivo at 2 mg/kg: 100%
[7]
  inhibition in vivo at 2 mg/kg: 82%
2.5 h, 3 mg/kg iv, AII .025 ug/kg, 150 min
  inhibition in vivo at 3 mg/kg: 50%
2.5 h, 3 mg/kg iv, AII .05 ug/kg, 150 min
  inhibition in vivo at 3 mg/kg: 67%
2.5 h, 3 mg/kg iv, AII .1 ug/kg, 150 min
  inhibition in vivo at 3 mg/kg: 48%
0.5 h, 5 mg/kg oral, AII .025 ug/kg, 30 min
  inhibition in vivo at 5 mg/kg: 94%
1 h, 5 mg/kg oral, AII .025 ug/kg, 60 min
  inhibition in vivo at 5 mg/kg: 89%
1.5 h, 5 mg/kg oral, AII .05 ug/kg, 90 min
  inhibition in vivo at 5 mg/kg: 61%
1.5 h, 5 mg/kg oral, AII .1 ug/kg, 90 min
  inhibition in vivo at 5 mg/kg: 36%
2 h, 5 mg/kg oral, AII .025 ug/kg, 120 min
  inhibition in vivo at 5 mg/kg: 94%
2 h, 5 mg/kg oral, AII .1 ug/kg, 120 min
  inhibition in vivo at 5 mg/kg: 40%
3 h, 5 mg/kg oral, AII .025 ug/kg, 180 min
  inhibition in vivo at 5 mg/kg: 72%
[8]
  inhibition in vivo at 5 mg/kg: 68%
[9]
  inhibition in vivo at 5 mg/kg: 56%
4 h, 5 mg/kg oral, AII .025 ug/kg, 240 min
  inhibition in vivo at 5 mg/kg: 100%
4 h, 5 mg/kg oral, AII .05 ug/kg, 240 min
  inhibition in vivo at 5 mg/kg: 49%
4 h, 5 mg/kg oral, AII .1 ug/kg, 240 min
  inhibition in vivo at 5 mg/kg: 48%

## CCCCc1nc2ccc(C(C)OC(C)=O)cc2c(=O)n1Cc1ccc(-c2ccccc2-c2nnn[nH]2)cc1 (stereo not drawn) [Example 58, 6-[1-(Acetyloxy)ethyl]-2-butyl-3-[[2'-(1H-tetrazol-5-yl)[1,1'-biphenyl]-4-yl]methyl]-4(3H) -quinazolinone]
0.5 h, AII .05 ug/kg, 30 min
  inhibition in vivo at 30 mg/kg: 87%
0.5 h, AII .1 ug/kg, 30 min
  inhibition in vivo at 30 mg/kg: 98%
1.5 h, AII .05 ug/kg, 90 min
  inhibition in vivo at 30 mg/kg: 85%
1.5 h, AII .1 ug/kg, 90 min
  inhibition in vivo at 30 mg/kg: 95%
2.5 h, AII .05 ug/kg, 150 min
  inhibition in vivo at 30 mg/kg: 85%
2.5 h, AII .1 ug/kg, 150 min
  inhibition in vivo at 30 mg/kg: 81%
